Usually IC50 stands for the concentration at which inhibition is half-maximal.

Where a name gives a salt, the structure may show the parent alone.

For one assay, the system named is A II-infused rat. Put plainly: A II-infused rat model (ganglion-blocked), antihypertensive action. Type of assay: in vivo. The settings on record: 3 mg/kg id (intraduodenal), four hours post-administration. The protocol:
In accordance with their ability to antagonize angiotensin II, the compounds of this invention show antihypertensive action in the following A II-infused rat model. Rats are anesthetized with Dial-Urethane (0.60 mL/kg, ip) and the trachea cannulated with PE 240. Either one femoral artery and both femoral veins or the carotid artery and the corresponding jugular vein are cannulated with PE 50. If the jugular vein is cannulated, two cannulas are placed in the one vein. The initial portion of the duodenum (just distal to the stomach) is cannulated with PE 50 via a small midline incision. Arterial pressure and heart rate are measured from the arterial cannula. Ten to 15 min are allowed following surgery for stabilization of arterial pressure. Ganglion blockade is then produced by intravenous administration of mecamylamine at 3 mg/kg (1 mL/kg of a 3 mg/mL solution). Ganglion blockade causes a fall in arterial pressure of about 50 mmHg. Mecamylamine is given every 90 min throughout the remainder of the experiment. An A II infusion is then begun into the other venous cannula at 0.25 μg/kg/min (at […]). The A II infusion returns arterial pressure to or slightly above the control level. Once arterial pressure has stabilized with the A II infusion, baseline values for mean arterial pressure (MAP) and heart rate are taken. […]
Take `FC(F)(F)c1nc2c(c(NCc3ccc(-c4ccccc4-c4nn[nH]n4)nc3)n1)CCCC2` [Example 9]: the “lowering of A II dependent blood pressure, average” value came to 70%.

The next assay has as its target angiotensin II receptor. Put plainly: rat adrenal receptor binding assay, displacement of radiolabeled (125I) angiotensin II. Particulars: rat adrenal cortex membranes; 1 nM 125I-A II; 35 min at 25° C.; pH 7.4; read-out: IC50, Inhibition of 125I Angiotensin II Binding. Here is the method:
The high affinity of the compounds for the angiotensin II receptor was established using a rat adrenal receptor binding assay, measuring the displacement of radiolabeled angiotensin II from the receptor, described as follows: Anesthetize male Sprague-Dawley rats (300-400 g body weight) with CO2 and sacrifice by cervical dislocation. Dissect adrenal glands and keep in ice-cold sucrose buffer (0.2M sucrose, 1 mM EDTA, 10 mM Trizma base, pH=7.2). Remove medulla by squashing. Mince the cortex, rinse and homogenize in a chilled ground glass tissue grinder with 15 mL sucrose buffer. Centrifuge at 3000×g for 10 min. (Sorvall RCSC centrifuge, SS34 rotor 6200 rpm). Decant supernatant through gauze. Centrifuge combined supernatant at 12000×g for 13 min. (Beckman ultracentrifuge, 80Ti rotor, 13000 rpm). Centrifuge the supernatant from the previous step at 102000×g for 60 min. (Beckman ultracentrifuge, 80Ti rotor, 38200 rpm). All steps are carried out at 4° C. Resuspend the pellet in 0.5 mL assay buffer (50 mM Tris HCI, 5 mM MgCl2, 0.2% BSA (protease-free), pH=7.4, 25° C.). Store on ice. Determine membrane protein by Lowry or Bradford assay with BSA as standard. The binding assay is performed in triplicate, in 12×75 mm plastic test tubes or in a 96-well plate (final volume of 0.25 mL). Add 140 μL assay buffer. Add 10 μL cold A II (to give final concentrations of 10^-10 -10^-7 M for standard curve and 10^-4 M for nonspecific binding), compounds (e.g., for final concentrations of 25 and 100 μM or 1 μM, 10 nM and 100 nM) in 50% DMSO, or 50% DMSO as a control. Add 50 μL membrane suspension (e.g., 10 μg protein). Preincubate for 30 min at 25° C. Add 50 μL ^125 I-A II which has been prepared as shown below (final concentration=1 nM). Incubate for 35 min at 25° C. Stop the incubation by adding 1 mL ice-cold buffer (assay buffer without BSA). Filter with GF/C filters on cell harvester (filters are presoaked in the assay buffer containing 1% polyethyleneimine). Rinse assay tubes 3× with 5 mL cold buffer (assay buffer without BSA). Cut and deposit the filter discs into test tubes and count on gamma counter for 1 min. Adjust the specific activity of ^125 I-A II purchased from New England Nuclear to 500 μCi/nmole by adding cold A II in water. Calculate the quantities of hot A II and the cold A II needed and make the dilution. Aliquot, seal tight, and store frozen until needed. Calculate the concentration of the total A II (hot+cold) after dilution. On the day of assay, thaw the frozen aliquot and adjust the volume to give a concentration of 5 pmole/mL (or 0.25 pmole/50 μL) with assay buffer (+protease-free BSA). For final concentration of 1 nM ^125 I-A II in the assay, add 50 μL (or 0.25 pmole) per test tube to a final volume of 250 μL. The results of these binding assays are reported as the inhibitory concentration of the test compound necessary to achieve fifty percent displacement of radiolabeled angiotensin II from its receptor (IC50), or the percent displacement of binding of A II at its receptor at 10^-8 M concentration of test compound (% I).
On to `CCCc1nc2ccccc2n1CC1=C(c2ccccc2-c2nnn[nH]2)CCC1` [Example 1, 2-Propyl-1-[[2-[2-(1H-tetrazol-5-yl)phenyl]-1-cyclopentenyl]methyl]-1H-benzimidazole], for which the 50% inhibitory concentration (IC50) came out at 200 µM.
Same read-out and setting: next, `CCCc1nc2ccccc2n1CC1=C(c2cccc(-c3nnn[nH]3)c2)CCC1` [Example 2, 2-Propyl-1-[[2-[3-(1H-tetrazol-5-yl)phenyl]-1-cyclopentenyl]methyl]1H-benzimidazole]: 73 µM.
The same measure, in the same setting: the same measure for `CCCc1nc2ccccc2n1Cc1ccc(C2=C(C(=O)O)CCC2)cc1` [Example 3, 2-[4-[(2-Propyl-1H-benzimidazol-1-yl)methyl]phenyl]-1-cyclopentene-1-carboxylic Acid]: 20 µM.
Take `CCCc1nc2ccccc2n1Cc1ccc(C2CCCC2C(=O)O)cc1` (centres unmarked) [Example 4, 2-[4-[(2-Propyl-1H-benzimidazol-1-yl)methyl]phenyl]cyclopentane-1-carboxylic Acid]: the half-inhibitory concentration (IC50) amounted to 25 µM.
The same measure, in the same setting: the same measure for `CCCc1nc2ccccc2n1CCN1CCN(c2ccccc2-c2nnn[nH]2)CC1` [Example 5, 2-Propyl-1-[2-[4-[2-(1H-tetrazol-5-yl)phenyl]-1-piperazinyl]ethyl]-1H-benzimidazole Potassium Salt]: 43 µM; for `CCCc1nc2ccccc2n1CCC1CCN(c2ccccc2-c2nnn[nH]2)CC1` [Example 6, 2-Propyl-1-[2-[1-[2-(1H-tetrazol-5-yl)phenyl]-4-piperidinyl]ethyl]-1H-benzimidazole]: 30 µM.
On the same count and under the same terms, next, `CCCc1nc2ccccc2n1Cc1ccc(-c2ccccc2-c2nnn[nH]2)nc1` [Example 7, 2-Propyl-1-[[2-[2-(1H-tetrazol-5-yl)phenyl]-5-pyridinyl]methyl]-1H-benzimidazole]: 24 µM; `CCCc1nc2c(C)cccc2n1Cc1ccc(-c2ccccc2-c2nnn[nH]2)nc1` [Example 8, 4-Methyl-2-propyl-1-[[2-[2-(1H-tetrazol-5-yl)phenyl]-5-pyridinyl]methyl]-1H-benzimidazole]: 15 µM.
The same measure, in the same setting: the same measure for `FC(F)(F)c1nc2c(c(NCc3ccc(-c4ccccc4-c4nn[nH]n4)nc3)n1)CCCC2` [Example 9]: 4.5 µM.
Regarding `CCCc1nc2ccccc2n1Cc1ccc(-c2ncccc2C(=O)O)cc1` [Example 10, 2-[4-[(2-Propyl-1H-benzimidazol-1-yl)methyl]phenyl]-3-pyridinecarboxylic Acid], the IC50 was 200 µM.

(Values after patent publication US5451583A, “Substituted benzimidazoles and quinazolines as antihypertensives” (American Home Products Corporation, priority 1994, dated 1995).)
